Biological target: T1, TcCaNA2 (Trypanosoma cruzi, UniProt G9B7N4)
T1 construct: gene CaNA2; tag cleavage not mentioned; primers from CL Brener XM_816360.1
Test: colorimetric phosphatase assay, absorbance at […] nm
Type: biochemical
Settings: 80 mM p-NPP, 1 µg enzyme, 15 min at 30 °C; 1 mM MnCl2 or NiCl2 (also CaCl2, MgCl2)

T1 sequence (G9B7N4 entry or part of it): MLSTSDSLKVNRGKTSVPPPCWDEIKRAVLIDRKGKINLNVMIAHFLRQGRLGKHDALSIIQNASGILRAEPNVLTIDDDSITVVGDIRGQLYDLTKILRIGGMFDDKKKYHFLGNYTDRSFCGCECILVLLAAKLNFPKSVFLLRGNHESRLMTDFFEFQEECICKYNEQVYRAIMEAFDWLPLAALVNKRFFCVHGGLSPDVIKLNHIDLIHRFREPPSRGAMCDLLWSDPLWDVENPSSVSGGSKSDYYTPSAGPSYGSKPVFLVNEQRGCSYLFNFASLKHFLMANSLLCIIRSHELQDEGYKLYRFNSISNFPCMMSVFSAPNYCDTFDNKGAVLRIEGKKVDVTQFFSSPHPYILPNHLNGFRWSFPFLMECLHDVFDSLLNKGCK

## O=[N+]([O-])c1ccc(OP(=O)(O)O)cc1 [p-nitrophenyl phosphate]
  colorimetric phosphatase assay, absorbance at 405 nm: The recombinant protein TcCaNA2 showed enzymatic activity using p-NPP as substrate

Reference: paper PMC3907409, “A Cytoplasmic New Catalytic Subunit of Calcineurin in Trypanosoma cruzi and Its Molecular and Functional Characterization” (PLoS Neglected Tropical Diseases, 2014)
